These results are taken from patent US7795261B2, “Substituted 1-piperidin-4-yl-4-pyrrolidin-3-yl-piperazine derivatives and their use as neurokinin antagonists” (Janssen Pharmaceutica NV, priority 2002, dated 2010).

Common to all, as to assay type: cell-based
The target of one experiment is NK1 (Homo sapiens, UniProt P25103). Description: Signal transduction (ST), intracellular Ca++ (FLIPR), NK1 antagonistic activity. The conditions noted are these: read-out: pIC50 NK1 (converted). Summed up:
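Antagonist IC50 was fitted by non-linear regression of peak intracellular Ca++ signals measured on FLIPR after agonist challenge. Beforehand, Fluo3-loaded confluent cells received antagonists over a concentration range for 20 min at room temperature in Ca++ Krebs buffer, pH 7.4.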

The target in another experiment is T1, NK2 (Homo sapiens, UniProt P21452).
T1 sequence (P21452 1-398): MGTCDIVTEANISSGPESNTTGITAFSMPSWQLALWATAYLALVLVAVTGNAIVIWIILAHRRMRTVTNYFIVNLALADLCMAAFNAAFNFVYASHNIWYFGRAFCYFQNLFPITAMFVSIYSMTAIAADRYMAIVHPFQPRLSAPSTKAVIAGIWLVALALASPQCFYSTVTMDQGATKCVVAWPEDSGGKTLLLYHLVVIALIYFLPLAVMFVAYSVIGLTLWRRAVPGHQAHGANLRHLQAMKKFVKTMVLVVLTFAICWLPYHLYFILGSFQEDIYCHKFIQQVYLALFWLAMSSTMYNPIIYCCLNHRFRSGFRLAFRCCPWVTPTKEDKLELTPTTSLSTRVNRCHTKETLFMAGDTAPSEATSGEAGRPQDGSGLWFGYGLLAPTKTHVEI
Nature of the experiment: Signal transduction (ST), intracellular Ca++ (FLIPR), NK2. The conditions noted are these: read-out: pIC50 NK2 (converted). Here is the method:
[The procedure below names another target; the source lists this target under the same test.] This test evaluates in vitro functional NK1 antagonistic activity. For the measurements of intracellular Ca^++ concentrations the cells were grown on 96-well (black wall/transparent bottom) plates from Costar for 2 days until they reached confluence. The cells were loaded with 2 μM Fluo3 in DMEM containing 0.1% BSA and 2.5 mM probenecid for 1 h at 37° C. They were washed 3× with a Krebs buffer (140 mM NaCl, 1 mM MgCl2×6H2O, 5 mM KCl, 10 mM glucose, 5 mM HEPES; 1.25 mM CaCl2; pH 7.4) containing 2.5 mM probenecid and 0.1% BSA (Ca^++-buffer). The cells were preincubated with a concentration range of antagonists for 20 min at RT and Ca^++-signals after addition of the agonists were measured in a Fluorescence Image Plate Reader (FLIPR from Molecular Devices, Crawley, England). The peak of the Ca^++-transient was considered as the relevant signal and the mean values of corresponding wells were analysed as described below.
The sigmoidal dose response curves were analysed by computerised curve-fitting, using the GraphPad Program. […] For antagonist responses the IC50-value was calculated using non-linear regression.
The last columns indicates—without being limited therefore—for which the compounds might be most suitable. Of course, since for some neurokinin receptors no data was determined, it is obvious that these compounds might be attributed to another suitable use.

The target in another experiment is T2, NK3 (Homo sapiens, UniProt P29371).
T2 sequence (P29371 1-465): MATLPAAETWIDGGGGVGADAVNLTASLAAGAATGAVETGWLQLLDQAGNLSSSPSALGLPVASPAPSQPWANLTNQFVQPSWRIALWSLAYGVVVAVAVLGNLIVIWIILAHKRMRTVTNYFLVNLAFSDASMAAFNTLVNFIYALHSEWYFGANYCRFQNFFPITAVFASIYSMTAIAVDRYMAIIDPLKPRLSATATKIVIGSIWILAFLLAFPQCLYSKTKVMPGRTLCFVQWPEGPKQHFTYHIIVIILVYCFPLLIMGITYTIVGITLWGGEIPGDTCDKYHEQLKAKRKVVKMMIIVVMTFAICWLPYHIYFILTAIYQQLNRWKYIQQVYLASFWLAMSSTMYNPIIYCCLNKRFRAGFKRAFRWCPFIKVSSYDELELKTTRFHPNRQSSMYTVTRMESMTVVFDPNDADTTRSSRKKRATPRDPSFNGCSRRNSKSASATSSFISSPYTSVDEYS
Nature of the experiment: Signal transduction (ST), intracellular Ca++ (FLIPR), NK3. To be noted: read-out: pIC50 NK3 (converted).

NK1, sequence (P25103 whole entry): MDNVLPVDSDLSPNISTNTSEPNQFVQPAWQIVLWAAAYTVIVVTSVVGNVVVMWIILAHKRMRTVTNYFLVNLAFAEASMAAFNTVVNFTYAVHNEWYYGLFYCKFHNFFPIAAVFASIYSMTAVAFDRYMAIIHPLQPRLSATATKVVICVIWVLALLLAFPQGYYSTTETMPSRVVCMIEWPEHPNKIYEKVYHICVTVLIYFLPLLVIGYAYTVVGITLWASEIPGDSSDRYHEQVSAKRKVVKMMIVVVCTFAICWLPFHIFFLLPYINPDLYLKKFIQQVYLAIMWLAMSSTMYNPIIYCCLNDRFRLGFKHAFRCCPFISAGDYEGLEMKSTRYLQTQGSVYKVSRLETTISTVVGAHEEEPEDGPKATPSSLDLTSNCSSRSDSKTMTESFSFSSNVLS

As to `O=C(C1CCCCN1C(=O)C1CC1)N1CCC(N2CCN([C@H]3CCN(C(=O)c4cc(C(F)(F)F)cc(C(F)(F)F)c4)[C@H](Cc4ccccc4)C3)CC2)C1` (stereo partly drawn) [Compound 296], the IC50 was 6.31 nM at NK1, 1580 nM on NK2 and 794 nM on NK3.
Taken in the same sequence, the figures for `CC(C)(C)OC(=O)N1CCCCC1C(=O)N1CCC(N2CCN(C3CCN(C(=O)c4cc(C(F)(F)F)cc(C(F)(F)F)c4)C(Cc4ccccc4)C3)CC2)C1` (stereo not drawn) [Compound 206] were 10 nM, 794 nM and 251 nM.
`O=C(c1ccccc1Cl)N1CCC(N2CCN(C3CCN(C(=O)c4cc(C(F)(F)F)cc(C(F)(F)F)c4)C(Cc4ccccc4)C3)CC2)C1` (single isomer, unassigned) [Compound 159]: the IC50 is 20 nM on NK1, 6310 nM on NK2 and 631 nM on NK3.
Turning to `O=C(c1c(Cl)cccc1Cl)N1CCC(N2CCN(C3CCN(C(=O)c4cc(C(F)(F)F)cc(C(F)(F)F)c4)C(Cc4ccc(F)c(F)c4)C3)CC2)C1` (stereo not drawn) [Compound 256], the IC50 was 25.1 nM on NK1, 1580 nM at NK2 and 398 nM at NK3.
As to `O=C(c1ccccc1Cl)N1CCC(N2CCN([C@H]3CCN(C(=O)c4cc(C(F)(F)F)cc(C(F)(F)F)c4)[C@H](Cc4ccc(Cl)c(Cl)c4)C3)CC2)C1` (relative stereo) [Compound 164], the IC50 on NK1 is 15.8 nM; on NK2 it was 79.4 nM; on NK3, 398 nM.
For `O=C(c1sccc1CCOCc1ccccc1)N1CCC(N2CCN([C@H]3CCN(C(=O)c4cc(C(F)(F)F)cc(C(F)(F)F)c4)[C@H](Cc4ccccc4)C3)CC2)C1` (stereo partly drawn) [Compound 361], the IC50 was 79.4 nM at NK1, 1000 nM on NK2 and 631 nM at NK3.
With `O=C(c1cc(C(F)(F)F)cc(C(F)(F)F)c1)N1CC[C@H](N2CCN(C3CCN(S(=O)(=O)c4ccc(O)cc4)C3)CC2)C[C@H]1Cc1ccccc1` (stereo partly drawn) [Compound 303], the results for the IC50 on NK1, on NK2 and on NK3 were 6.31 nM, 631 nM and 3160 nM, respectively.
Regarding `O=C(C1CCOC1)N1CCC(N2CCN(C3CCN(C(=O)c4cc(C(F)(F)F)cc(C(F)(F)F)c4)C(Cc4ccc(Cl)c(Cl)c4)C3)CC2)C1` (single isomer, unassigned) [Compound 331], the IC50 at NK1 was 3.16 nM; at NK2, 2000 nM; at NK3, 251 nM.
Taken in the same sequence, the figures for `O=C(c1ccc(CCO)s1)N1CCC(N2CCN(C3CCN(C(=O)c4cc(C(F)(F)F)cc(C(F)(F)F)c4)C(Cc4ccccc4)C3)CC2)C1` (stereo not drawn) [Compound 359] were 12.6 nM, 2510 nM and 2000 nM.
Taken in the same sequence, the figures for `O=C(c1cnccn1)N1CC[C@H](N2CCN([C@H]3CCN(C(=O)c4cc(C(F)(F)F)cc(C(F)(F)F)c4)[C@H](Cc4ccc(Cl)c(Cl)c4)C3)CC2)C1` [Compound 323] were 10 nM, 1260 nM and 316 nM.
Consider `Cc1onc(-c2c(Cl)cccc2Cl)c1C(=O)N1CCC(N2CCN([C@H]3CCN(C(=O)c4cc(C(F)(F)F)cc(C(F)(F)F)c4)[C@H](Cc4ccccc4)C3)CC2)C1` (stereo partly drawn) [Compound 49], for which the IC50 was 25.1 nM on NK1, 3160 nM on NK2 and 251 nM at NK3.
For the molecule `O=C(c1ccccc1Cl)N1CC[C@H](N2CCN([C@H]3CCN(C(=O)c4cc(C(F)(F)F)cc(C(F)(F)F)c4)[C@H](Cc4ccc(Cl)c(Cl)c4)C3)CC2)C1` [Compound 315], the values for the IC50 on NK1, on NK2 and at NK3 were 5.01 nM, 501 nM and 631 nM, respectively.
For the molecule `O=C(c1c(Cl)cccc1Cl)N1CC[C@@H](N2CCN([C@H]3CCN(C(=O)c4cc(C(F)(F)F)cc(C(F)(F)F)c4)[C@H](Cc4ccc(Cl)c(Cl)c4)C3)CC2)C1` [Compound 265], the IC50 at NK1 was 20 nM; on NK2, 1580 nM; at NK3, 158 nM.
Turning to `Cn1cccc(C(=O)N2CCC(N3CCN(C4CCN(C(=O)c5cc(C(F)(F)F)cc(C(F)(F)F)c5)C(Cc5ccc(F)c(F)c5)C4)CC3)C2)c1=O` (single isomer, unassigned) [Compound 260], the IC50 is 15.8 nM at NK1, 398 nM on NK2 and 3980 nM at NK3.
For the molecule `O=C(c1ccccc1Cl)N1CCC(N2CCN(C3CCN(C(=O)c4cc(C(F)(F)F)cc(C(F)(F)F)c4)C(Cc4ccc(F)c(F)c4)C3)CC2)C1` (single isomer, unassigned) [Compound 211], the IC50 at NK1 is 6.31 nM; on NK2 it was 1000 nM; at NK3, 200 nM.
As for `O=C(c1cc(Cl)sc1Cl)N1CCC(N2CCN([C@H]3CCN(C(=O)c4cc(C(F)(F)F)cc(C(F)(F)F)c4)[C@H](Cc4ccccc4)C3)CC2)C1` (stereo partly drawn) [Compound 44], the figures for the IC50 at NK1, on NK2 and at NK3 were 50.1 nM, 6310 nM and 631 nM, respectively.
In the case of `O=C(c1ccccc1Cl)N1CCC(N2CCN([C@H]3CCN(C(=O)c4cc(C(F)(F)F)cc(C(F)(F)F)c4)[C@H](Cc4ccccc4)C3)CC2)C1` (stereo partly drawn) [Compound 17], the IC50 is 15.8 nM at NK1, 7940 nM on NK2 and 251 nM on NK3.
For `O=C(C1CC1)N1CC[C@H](N2CCN([C@H]3CCN(C(=O)c4cc(C(F)(F)F)cc(C(F)(F)F)c4)[C@H](Cc4ccc(Cl)c(Cl)c4)C3)CC2)C1` [Compound 312], the figures for the IC50 on NK1, on NK2 and on NK3 were 7.94 nM, 1580 nM and 501 nM, respectively.
Regarding `O=C(c1cc(COCc2ccccc2)cs1)N1CCC(N2CCN([C@H]3CCN(C(=O)c4cc(C(F)(F)F)cc(C(F)(F)F)c4)[C@H](Cc4ccccc4)C3)CC2)C1` (stereo partly drawn) [Compound 352], the values for the IC50 on NK1, on NK2 and at NK3 were 63.1 nM, 6310 nM and 3160 nM, respectively.
In the same order, the values of `O=C(c1ccsc1)N1CC[C@H](N2CCN([C@@H]3CCN(C(=O)c4cc(C(F)(F)F)cc(C(F)(F)F)c4)[C@@H](Cc4ccc(Cl)c(Cl)c4)C3)CC2)C1` [Compound 251] are 50.1 nM, 6310 nM and 5010 nM.
In the case of `N#CN=C(N1CCCC1)N1CCC(N2CCN([C@H]3CCN(C(=O)c4cc(C(F)(F)F)cc(C(F)(F)F)c4)[C@H](Cc4ccccc4)C3)CC2)C1` (stereo partly drawn) [Compound 302], the IC50 at NK1 is 7.94 nM; on NK2 it was 2510 nM; on NK3, 1000 nM.
`O=C(c1ccccc1F)N1CCC(N2CCN(C3CCN(C(=O)c4cc(C(F)(F)F)cc(C(F)(F)F)c4)C(Cc4ccc(Cl)c(Cl)c4)C3)CC2)C1` (stereo not drawn) [Compound 174]: the values for the IC50 on NK1, on NK2 and at NK3 were 20 nM, 2000 nM and 1000 nM, respectively.
Turning to `CC(C)(C)C(=O)N1CC[C@H](N2CCN([C@H]3CCN(C(=O)c4cc(C(F)(F)F)cc(C(F)(F)F)c4)[C@H](Cc4ccc(Cl)c(Cl)c4)C3)CC2)C1` [Compound 313], the results for the IC50 on NK1, on NK2 and on NK3 were 3.98 nM, 631 nM and 251 nM, respectively.
`Cn1cccc1C(=O)N1CCC(N2CCN(C3CCN(C(=O)c4cc(C(F)(F)F)cc(C(F)(F)F)c4)C(Cc4ccc(F)c(F)c4)C3)CC2)C1` (single isomer, unassigned) [Compound 367]: the IC50 at NK1 was 10 nM; on NK2, 1260 nM; on NK3 it was 1580 nM.
In the same order, the values of `CN(C(=O)OC(C)(C)C)C(C)(C)C(=O)N1CCC(N2CCN(C3CCN(C(=O)c4cc(C(F)(F)F)cc(C(F)(F)F)c4)C(Cc4ccccc4)C3)CC2)C1` (stereo not drawn) [Compound 304] are 10 nM, 1580 nM and 158 nM.
With `O=C(C1CC1)N1CCC(N2CCN([C@H]3CCN(C(=O)c4cc(C(F)(F)F)cc(C(F)(F)F)c4)[C@H](Cc4ccccc4)C3)CC2)C1` (stereo partly drawn) [Compound 72], the results for the IC50 on NK1, on NK2 and on NK3 were 50.1 nM, 63.1 nM and 794 nM, respectively.
